± gives the expanded uncertainty stated by the source.
Key:
[1] = refractive index (Na D-line) (dimensionless); conditions: 101.33 kPa, Liquid, Standard Abbe refractometry
[2] = 101 kPa, Liquid; for speed of sound: Pulse-echo method
[3] = xn = mol fraction of the nth substance listed; conditions: 101 kPa, Liquid, x2 = 0; for speed of sound: Pulse-echo method
[4] = refractive index (Na D-line) (dimensionless); xn = mol fraction of the nth substance listed; conditions: 101 kPa, Liquid, Standard Abbe refractometry, x2 = 0

CCCCCCCCCCO [decan-1-ol]
Conditions | mass density, [2] [kg/m3] | refractive index, [1] | speed of sound, [2] [m/s] | viscosity, [2] [mPa·s]
298.15 K | 826.41 ± 0.43 | 1.4346 ± 0.0005 | 1380.1 ± 1.3 | 11.82 ± 0.11
303.15 K | 822.92 ± 0.44 | 1.4326 ± 0.0005 | 1364.9 ± 1.3 | 9.766 ± 0.095
308.15 K | 819.42 ± 0.44 | 1.4305 ± 0.0005 | 1346 ± 1.3 | 8.13 ± 0.081

CCCCCCCCCCO [decan-1-ol] + Cc1ccccc1Cl
Conditions | mass density, [3] [kg/m3] | refractive index, [4] | speed of sound, [3] [m/s] | viscosity, [3] [mPa·s]
298.15 K | 826.41 ± 0.43 | 1.4346 ± 0.0005 | 1380.1 ± 1.3 | 11.82 ± 0.11
303.15 K | 822.92 ± 0.44 | 1.4326 ± 0.0005 | 1364.9 ± 1.3 | 9.766 ± 0.095
308.15 K | 819.42 ± 0.44 | 1.4305 ± 0.0005 | 1346 ± 1.3 | 8.13 ± 0.081

CCCCCCCCCCO [decan-1-ol] + Cc1cccc(Cl)c1
Conditions | mass density, [3] [kg/m3] | refractive index, [4] | speed of sound, [3] [m/s] | viscosity, [3] [mPa·s]
298.15 K | 826.41 ± 0.43 | 1.4346 ± 0.0005 | 1380.1 ± 1.3 | 11.82 ± 0.11
303.15 K | 822.92 ± 0.44 | 1.4326 ± 0.0005 | 1364.9 ± 1.3 | 9.766 ± 0.095
308.15 K | 819.42 ± 0.44 | 1.4305 ± 0.0005 | 1346 ± 1.3 | 8.13 ± 0.081

CCCCCCCCCCO [decan-1-ol] + Cc1ccc(Cl)cc1
Conditions | mass density, [3] [kg/m3] | refractive index, [4] | speed of sound, [3] [m/s] | viscosity, [3] [mPa·s]
298.15 K | 826.41 ± 0.43 | 1.4346 ± 0.0005 | 1380.1 ± 1.3 | 11.82 ± 0.11
303.15 K | 822.92 ± 0.44 | 1.4326 ± 0.0005 | 1364.9 ± 1.3 | 9.766 ± 0.095
308.15 K | 819.42 ± 0.44 | 1.4305 ± 0.0005 | 1346 ± 1.3 | 8.13 ± 0.081

Cc1ccc(Cl)cc1 [4-chlorotoluene]
Conditions | mass density, [2] [kg/m3] | refractive index, [1] | speed of sound, [2] [m/s] | viscosity, [2] [mPa·s]
298.15 K | 1065.11 ± 0.27 | 1.5188 ± 0.0005 | 1289.1 ± 1.2 | 0.828 ± 0.011
303.15 K | 1059.51 ± 0.26 | 1.5166 ± 0.0005 | 1271 ± 1.2 | 0.784 ± 0.011
308.15 K | 1053.9 ± 0.25 | 1.5138 ± 0.0005 | 1253.1 ± 1.2 | 0.73 ± 0.011

Cc1ccccc1Cl [2-chlorotoluene]
Conditions | mass density, [2] [kg/m3] | refractive index, [1] | speed of sound, [2] [m/s] | viscosity, [2] [mPa·s]
298.15 K | 1077.41 ± 0.3 | 1.5219 ± 0.0005 | 1301.2 ± 1.3 | 0.943 ± 0.013
303.15 K | 1072.83 ± 0.3 | 1.5189 ± 0.0005 | 1284.1 ± 1.3 | 0.885 ± 0.012
308.15 K | 1068.24 ± 0.29 | 1.5169 ± 0.0005 | 1266.1 ± 1.3 | 0.805 ± 0.011

Cc1cccc(Cl)c1 [3-chlorotoluene]
Conditions | mass density, [2] [kg/m3] | refractive index, [1] | speed of sound, [2] [m/s] | viscosity, [2] [mPa·s]
298.15 K | 1067.29 ± 0.29 | 1.5207 ± 0.0005 | 1298.3 ± 1.3 | 0.798 ± 0.011
303.15 K | 1062.81 ± 0.28 | 1.5189 ± 0.0005 | 1280.1 ± 1.3 | 0.746 ± 0.011
308.15 K | 1058.33 ± 0.27 | 1.5169 ± 0.0005 | 1262.1 ± 1.3 | 0.705 ± 0.01

— the NIST ThermoML archive (doi:10.1007/s10765-011-0995-x)
